Source: ChEMBL document CHEMBL4665650, “Towards a TREK-1/2 (TWIK-Related K+ Channel 1 and 2) dual activator tool compound: Multi-dimensional optimization of BL-1249” (Bioorg Med Chem Lett, 2019)

Legend:
[1] = molecular target: T1, Potassium channel subfamily K member 10 (Homo sapiens, UniProt P57789); assay: Activation of human TREK2 by thallium flux mobilization assay
T1 sequence (P57789 whole entry): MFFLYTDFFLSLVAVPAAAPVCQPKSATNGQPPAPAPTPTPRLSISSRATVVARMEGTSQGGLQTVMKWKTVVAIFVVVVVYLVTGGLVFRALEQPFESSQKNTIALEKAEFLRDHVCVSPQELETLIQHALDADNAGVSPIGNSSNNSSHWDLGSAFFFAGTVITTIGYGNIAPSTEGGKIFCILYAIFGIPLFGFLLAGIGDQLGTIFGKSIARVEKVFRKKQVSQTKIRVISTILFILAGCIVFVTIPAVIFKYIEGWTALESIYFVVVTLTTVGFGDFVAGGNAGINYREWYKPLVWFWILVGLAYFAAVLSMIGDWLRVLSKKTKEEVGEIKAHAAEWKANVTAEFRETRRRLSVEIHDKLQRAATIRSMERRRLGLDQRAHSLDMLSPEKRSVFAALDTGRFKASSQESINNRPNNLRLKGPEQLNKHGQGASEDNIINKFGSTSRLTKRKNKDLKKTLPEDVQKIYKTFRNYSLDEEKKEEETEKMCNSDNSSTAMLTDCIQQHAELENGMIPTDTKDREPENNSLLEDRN

[2] = molecular target: T2, Potassium channel subfamily K member 2 (Homo sapiens, UniProt O95069); assay: Activation of human TREK1 by thallium flux mobilization assay
T2 sequence (O95069 whole entry): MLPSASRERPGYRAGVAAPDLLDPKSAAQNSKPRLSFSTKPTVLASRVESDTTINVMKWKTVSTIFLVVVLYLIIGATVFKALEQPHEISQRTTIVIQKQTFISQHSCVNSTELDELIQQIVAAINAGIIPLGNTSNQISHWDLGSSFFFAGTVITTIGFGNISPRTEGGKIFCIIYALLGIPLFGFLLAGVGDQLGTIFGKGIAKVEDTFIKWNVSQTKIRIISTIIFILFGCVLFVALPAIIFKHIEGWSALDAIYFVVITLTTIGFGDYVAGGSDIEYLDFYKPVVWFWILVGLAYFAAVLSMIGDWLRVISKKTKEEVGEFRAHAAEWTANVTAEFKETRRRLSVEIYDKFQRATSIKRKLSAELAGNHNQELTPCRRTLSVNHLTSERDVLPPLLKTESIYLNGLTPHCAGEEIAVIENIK

[3] = molecular target: T3, Potassium channel subfamily K member 10 (Homo sapiens) (UniProt P57789); assay: Activation of human TREK2 at 30 uM by thallium flux mobilization assay relative to control; conditions: filed as activator
T3 sequence (whole entry): T1 sequence (P57789 whole entry)

[4] = molecular target: T4, Potassium channel subfamily K member 2 (Homo sapiens) (UniProt O95069); assay: Activation of human TREK1 at 30 uM by thallium flux mobilization assay relative to control; conditions: filed as activator
T4 sequence (whole entry): T2 sequence (O95069 whole entry)

[5] = Fraction unbound in human plasma; format: ADME, cell-free
[6] = Fraction unbound in rat plasma; format: ADME, cell-free
[7] = Half life in rat at 0.05 mg/kg, iv administered as cassette dose; format: ADME, organism-based; conditions: in vivo

Q: With `c1ccc(-c2nnn[nH]2)c(Nc2cccc3c2CCCC3)c1` as the compound, how does the EC50 [1] read?
A: Its EC50 is 7.7 µM.

Q: And the EC50 [2]?
A: Its EC50 is 5.2 µM.

Q: And the Activity [3]?
A: The Activity was 133%.

Q: What about the Activity [4] of the same compound?
A: The Activity was 109%.

Q: And the fraction unbound [5]?
A: Its fraction unbound is less than 0.001.

Q: What about the fraction unbound [6] of the same compound?
A: Its fraction unbound is 0.001.

Q: And the half-life [7]?
A: The half-life was 3 min.
